According to publication PMC3375340 (Journal of Medicinal Chemistry, 2012):
In brackets after ≈: the same amount, converted by molar mass.

Legend:
[1] = tested on: M. tuberculosis H37Rv INHr; assay: microbe, parasite or virus in culture; assay type: cell-based; conditions: Mycobacterium tuberculosis
[2] = tested on: M. tuberculosis H37Rv RFPr; assay: microbe, parasite or virus in culture; assay type: cell-based; conditions: Mycobacterium tuberculosis

CCCCCC[C@H](CN1CCC(COc2cccc(C(=NOC)c3ccc(Cl)cc3)c2)CC1)OC(N)=O [(R)-13, (R)-1-(4-((3-((4-Chlorophenyl)(methoxyimino)methyl)phenoxy)methyl)piperidin-1-yl)octan-2-yl carbamate]
MIC [1]: 1.52 µg/mL (≈ 2.87 µM) | MIC [2]: 1.51 µg/mL (≈ 2.85 µM)
